From article PMC8185074, “Anchor extension: a structure-guided approach to design cyclic peptides targeting enzyme active sites” (Nature Communications, 2021) come the findings set out here.

The target in this assay is HDAC9 (Homo sapiens, UniProt Q9UKV0). Kind of assay: HDAC9 profiling of SHA anchor and early peptides. It counts as biochemical.

Entries after “also recorded” stand apart in the source; their conditions may differ.

HDAC9, sequence (Q9UKV0 whole entry): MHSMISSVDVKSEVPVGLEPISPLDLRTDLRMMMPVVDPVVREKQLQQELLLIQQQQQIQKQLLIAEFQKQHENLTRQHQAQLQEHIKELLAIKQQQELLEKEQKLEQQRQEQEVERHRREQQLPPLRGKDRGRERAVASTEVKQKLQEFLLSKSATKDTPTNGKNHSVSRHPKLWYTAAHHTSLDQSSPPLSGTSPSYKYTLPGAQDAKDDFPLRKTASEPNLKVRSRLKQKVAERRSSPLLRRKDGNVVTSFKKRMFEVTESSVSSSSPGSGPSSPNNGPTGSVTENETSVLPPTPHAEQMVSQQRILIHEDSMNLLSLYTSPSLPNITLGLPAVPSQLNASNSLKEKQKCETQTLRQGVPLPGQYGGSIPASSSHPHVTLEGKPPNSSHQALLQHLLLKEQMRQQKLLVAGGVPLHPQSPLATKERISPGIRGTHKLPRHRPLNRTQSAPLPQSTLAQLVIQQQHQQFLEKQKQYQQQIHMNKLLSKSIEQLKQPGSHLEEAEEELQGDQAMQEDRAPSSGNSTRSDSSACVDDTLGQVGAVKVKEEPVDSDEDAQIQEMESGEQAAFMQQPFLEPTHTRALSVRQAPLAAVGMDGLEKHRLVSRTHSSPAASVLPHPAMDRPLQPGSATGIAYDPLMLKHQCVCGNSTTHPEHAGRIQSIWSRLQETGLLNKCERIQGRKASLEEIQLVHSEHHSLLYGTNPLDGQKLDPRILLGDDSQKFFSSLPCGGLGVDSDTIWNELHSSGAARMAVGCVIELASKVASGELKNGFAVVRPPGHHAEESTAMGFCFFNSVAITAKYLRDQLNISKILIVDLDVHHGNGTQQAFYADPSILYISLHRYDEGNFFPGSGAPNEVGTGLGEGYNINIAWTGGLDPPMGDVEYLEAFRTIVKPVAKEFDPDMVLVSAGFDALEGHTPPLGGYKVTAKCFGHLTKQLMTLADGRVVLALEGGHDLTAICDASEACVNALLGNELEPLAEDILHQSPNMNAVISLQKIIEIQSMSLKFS

Take `N[C@@H](CCCCCS)C(=O)O` [SHA, 2S-2-amino-7-sulfanylheptanoic acid]: the “binding to HDAC9” value is “not detected binding; also recorded: no binding”. Where the note is “Conc. 1.00E-05 M”, the “HDAC9 raw activity signal” value was 866095. Also, under “Conc. 1.11E-06 M”, the “HDAC9 raw activity signal” value is 1324190. The “HDAC9 raw activity signal” value (Conc. 1.23E-07 M) is 1424055. Further, for the setting “Conc. 1.37E-08 M”, the “HDAC9 raw activity signal” value was found to be 1252931. In addition, the “HDAC9 raw activity signal” value (Conc. 1.52E-09 M) is listed as 1327312. Further, the “HDAC9 raw activity signal” value (Conc. 3.33E-06 M) came to 1253108. Moreover, the “HDAC9 raw activity signal” value (Conc. 3.70E-07 M) was 1495255. Further, for the setting “Conc. 4.12E-08 M”, the “HDAC9 raw activity signal” value was found to be 1362638. Also, the “HDAC9 raw activity signal” value (Conc. 4.57E-09 M) came out at 1400560. For the same molecule, the “HDAC9 raw activity signal” value (Conc. 5.08E-10 M) was found to be 1258385.
